Measured values from patent publication US20230107941A1, “HEPATITIS B CAPSID ASSEMBLY MODULATORS” (Venatorx Pharmaceuticals, Inc., priority 2019, published 2023).

Assays:
[1] = In vitro cytotoxicity assay (MTT cell viability) in HepG2 cells; format: cell-based, human; conditions: human
How it was run: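 CC50 was derived by 4-parameter fit of viability relative to vehicle controls, measured as MTT formazan absorbance at 492 nm after 3–4 h of reagent and DMSO solubilization. Before that, HepG2 cells seeded overnight at 20,000/well were incubated 7 days at 37°C with compound from 30 μM down to 1.0 nM in half-log steps.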

HBV = assay: In vitro antiviral assay: anti-HBV replication in HepAD38 cells (extracellular HBV DNA by QPCR); format: cell-based, hepatitis B virus (genotype D, serotype ayw); conditions: Hepatitis B virus, HePAD38, 168 h, 7 days incubation, extracellular HBV DNA by QPCR, read-out: Anti-HBV EC50
How it was run: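 Read-out is extracellular HBV DNA (copies/mL, QPCR standard curve) after 7-day exposure of tet-free HepAD38 cells to 10-fold dilutions from 1 μM down to 10 pM. Values normalised to DMSO vehicle; EC50 from 4-parameter nonlinear regression, with entecavir validating each run.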

SMILES: Cc1cc(NC(=O)c2c(C)c(C(=O)C(=O)N[C@@H]3CC[C@H](O)CC3(C)C)n(C)c2C)ccc1F (single isomer, unassigned) [Example 142]
- CC50 at 7 days [1]: > 30 µM
- EC50 (HBV): < 0.05 µM

SMILES: CCC1(NC(=O)C(=O)c2c(C)c(C(=O)Nc3ccc(F)c(C)c3)c(C)n2C)CCN(C(=O)c2ccnn2C)CC1 [Example 39, 5-(2-((4-ethyl-1-(1-methyl-1H-pyrazole-5-carbonyl)piperidin-4-yl)amino)-2-oxoacetyl)-N-(4-fluoro-3-methylphenyl)-1,2,4-trimethyl-1H-pyrrole-3-carboxamide]
- CC50 at 7 days [1]: > 30 µM
- EC50 (HBV): < 0.05 µM

SMILES: Cc1cc(NC(=O)c2c(C)c(C(=O)C(=O)N[C@H]3CC[C@@H](S(C)(=O)=O)CC3)n(C)c2-c2ccncc2)ccc1F [Example 160, N-(4-fluoro-3-methylphenyl)-1,4-dimethyl-5-(2-(((1s,4s)-4-(methylsulfonyl)cyclohexyl)amino)-2-oxoacetyl)-2-(pyridin-4-yl)-1H-pyrrole-3-carboxamide]
- CC50 at 7 days [1]: > 30 µM
- EC50 (HBV): > 1 µM

SMILES: CC(=O)N1CC[C@@H](NC(=O)C(=O)c2c(C)c(C(=O)Nc3ccc(F)c(C)c3)c(C)n2C)C[C@H]1C [Example 165, 5-(2-(((2R,4R)-1-acetyl-2-methylpiperidin-4-yl)amino)-2-oxoacetyl)-N-(4-fluoro-3-methylphenyl)-1,2,4-trimethyl-1H-pyrrole-3-carboxamide]
- CC50 at 7 days [1]: > 30 µM
- EC50 (HBV): < 0.05 µM

SMILES: Cc1cc(NC(=O)c2c(C)c(C(=O)C(=O)N[C@]3(C)CC[C@H](O)CC3)n(C)c2C2CC2)ccc1F [Example 114, 2-cyclopropyl-N-(4-fluoro-3-methylphenyl)-5-(2-(((1s,4s)-4-hydroxy-1-methylcyclohexyl)amino)-2-oxoacetyl)-1,4-dimethyl-1H-pyrrole-3-carboxamide]
- CC50 at 7 days [1]: > 30 µM
- EC50 (HBV): < 0.05 µM

SMILES: Cc1c(C(=O)Nc2ccc(N3CCOCC3)nc2)c(C)n(C)c1C(=O)C(=O)NC(C)(C)C [Example 62, 5-(2-(tert-butylamino)-2-oxoacetyl)-1,2,4-trimethyl-N-(6-morpholinopyridin-3-yl)-1H-pyrrole-3-carboxamide]
- CC50 at 7 days [1]: > 30 µM
- EC50 (HBV): > 1 µM

SMILES: Cc1cc(NC(=O)c2c(C)c(C(=O)C(=O)N[C@H]3[C@@H]4CC[C@@H](C4)[C@H]3CO)n(C)c2C)ccc1F [Example 20, N-(4-fluoro-3-methylphenyl)-5-(2-(((1R,2S,3R,4S)-3-(hydroxymethyl)bicyclo[2.2.1]heptan-2-yl)amino)-2-oxoacetyl)-1,2,4-trimethyl-1H-pyrrole-3-carboxamide]
- CC50 at 7 days [1]: > 30 µM
- EC50 (HBV): < 0.05 µM

SMILES: Cc1cc(NC(=O)c2c(C)c(C(=O)C(=O)N[C@]3(C)C[C@H](O)C3)n(C)c2-c2ccsc2)ccc1F [Example 181, N-(4-fluoro-3-methylphenyl)-5-(2-(((1s,3s)-3-hydroxy-1-methylcyclobutyl)amino)-2-oxoacetyl)-1,4-dimethyl-2-(thiophen-3-yl)-1H-pyrrole-3-carboxamide]
- CC50 at 7 days [1]: 5 to 30 µM
- EC50 (HBV): 0.5 to 1 µM

SMILES: CCC(CC)NC(=O)C(=O)c1c(C)c(C(=O)Nc2ccc(F)c(C)c2)c(C)n1C [Example 188, N-(4-fluoro-3-methylphenyl)-1,2,4-trimethyl-5-(2-oxo-2-(pentan-3-ylamino)acetyl)-1H-pyrrole-3-carboxamide]
- CC50 at 7 days [1]: 5 to 30 µM
- EC50 (HBV): < 0.05 µM

SMILES: Cc1cc(NC(=O)c2c(C)c(C(=O)C(=O)N[C@H]3C[C@@H]4CC[C@H]3C4)n(C)c2C)ccc1F [Example 22, 5-(2-(((1S,2S,4R)-bicyclo[2.2.1]heptan-2-yl)amino)-2-oxoacetyl)-N-(4-fluoro-3-methylphenyl)-1,2,4-trimethyl-1H-pyrrole-3-carboxamide]
- CC50 at 7 days [1]: 5 to 30 µM
- EC50 (HBV): < 0.05 µM

SMILES: CCc1c(C(=O)Nc2ccc(F)c(C)c2)c(C)c(C(=O)C(=O)NCC(C)(C)O)n1C [Example 105, 2-ethyl-N-(4-fluoro-3-methylphenyl)-5-(2-((2-hydroxy-2-methylpropyl)amino)-2-oxoacetyl)-1,4-dimethyl-1H-pyrrole-3-carboxamide]
- CC50 at 7 days [1]: > 30 µM
- EC50 (HBV): < 0.05 µM

SMILES: CC(=O)N1CCC(CO)(NC(=O)C(=O)c2c(C)c(C(=O)Nc3ccc(F)c(C)c3)c(C)n2C)CC1 [Example 72, 5-(2-((1-acetyl-4-(hydroxymethyl)piperidin-4-yl)amino)-2-oxoacetyl)-N-(4-fluoro-3-methylphenyl)-1,2,4-trimethyl-1H-pyrrole-3-carboxamide]
- CC50 at 7 days [1]: > 30 µM
- EC50 (HBV): < 0.05 µM

SMILES: Cc1cc(NC(=O)c2c(C)c(C(=O)C(=O)N[C@@H]3C[C@@H](C(=O)O)N(C)C3)n(C)c2C)ccc1F [Example 171, (2S,4R)-4-(2-(4-((4-fluoro-3-methylphenyl)carbamoyl)-1,3,5-trimethyl-1H-pyrrol-2-yl)-2-oxoacetamido)-1-methylpyrrolidine-2-carboxylic acid]
- CC50 at 7 days [1]: > 30 µM
- EC50 (HBV): > 1 µM

SMILES: Cc1c(C(=O)Nc2ccc(F)c(F)c2)c2n(c1C(=O)C(=O)N[C@@H]1COC[C@H]1N1CCOCC1)CCCC2 [Example 37, N-(3,4-difluorophenyl)-2-methyl-3-(2-(((3S,4S)-4-morpholinotetrahydrofuran-3-yl)amino)-2-oxoacetyl)-5,6,7,8-tetrahydroindolizine-1-carboxamide]
- CC50 at 7 days [1]: > 30 µM
- EC50 (HBV): 0.05 to 0.499 µM

SMILES: Cc1cc(NC(=O)c2c(C)c(C(=O)C(=O)N[C@@H]3CN[C@H](C(=O)O)C3)n(C)c2C)ccc1F [Example 179, (2S,4S)-4-(2-(4-((4-fluoro-3-methylphenyl)carbamoyl)-1,3,5-trimethyl-1H-pyrrol-2-yl)-2-oxoacetamido)pyrrolidine-2-carboxylic acid]
- CC50 at 7 days [1]: > 30 µM
- EC50 (HBV): > 1 µM

SMILES: Cc1cc(NC(=O)c2c(C)c(C(=O)C(=O)N[C@]3(C)C[C@H](O)C3)n(C)c2C2CCCCC2)ccc1F [Example 116, 2-cyclohexyl-N-(4-fluoro-3-methylphenyl)-5-(2-(((1s,3s)-3-hydroxy-1-methylcyclobutyl)amino)-2-oxoacetyl)-1,4-dimethyl-1H-pyrrole-3-carboxamide]
- CC50 at 7 days [1]: > 30 µM
- EC50 (HBV): 0.5 to 1 µM

SMILES: Cc1cc(NC(=O)c2c(C)c(C(=O)C(=O)NC3(CO)CCN(C(=O)c4cnn(C)c4)CC3)n(C)c2C)ccc1F [Example 74, N-(4-fluoro-3-methylphenyl)-5-(2-((4-(hydroxymethyl)-1-(1-methyl-1H-pyrazole-4-carbonyl)piperidin-4-yl)amino)-2-oxoacetyl)-1,2,4-trimethyl-1H-pyrrole-3-carboxamide]
- CC50 at 7 days [1]: > 30 µM
- EC50 (HBV): < 0.05 µM

SMILES: Cc1cc(NC(=O)c2c(C)c(C(=O)C(=O)N[C@]3(C)C[C@H](O)C3)n(C)c2-c2cccnc2)ccc1F [Example 150, N-(4-fluoro-3-methylphenyl)-5-(2-(((1s,3s)-3-hydroxy-1-methylcyclobutyl)amino)-2-oxoacetyl)-1,4-dimethyl-2-(pyridin-3-yl)-1H-pyrrole-3-carboxamide]
- CC50 at 7 days [1]: > 30 µM
- EC50 (HBV): > 1 µM

SMILES: Cc1cc(NC(=O)c2c(C3CC3)c(C(=O)C(=O)N[C@H](C)C(F)(F)F)n(C)c2C)ccc1F [Example 101, (R)-4-cyclopropyl-N-(4-fluoro-3-methylphenyl)-1,2-dimethyl-5-(2-oxo-2-((1,1,1-trifluoropropan-2-yl)amino)acetyl)-1H-pyrrole-3-carboxamide]
- CC50 at 7 days [1]: > 30 µM
- EC50 (HBV): < 0.05 µM

SMILES: Cc1c(C(=O)Nc2cc(Cl)nc(Cl)c2)c(C)n(C)c1C(=O)C(=O)N[C@]1(C)CC[C@@H](O)CC1 [Example 9, N-(2,6-dichloropyridin-4-yl)-5-(2-(((1r,4r)-4-hydroxy-1-methylcyclohexyl)amino)-2-oxoacetyl)-1,2,4-trimethyl-1H-pyrrole-3-carboxamide]
- CC50 at 7 days [1]: > 30 µM
- EC50 (HBV): < 0.05 µM

SMILES: Cc1cc(NC(=O)c2c(C)c(C(=O)C(=O)N[C@H]3CC[C@@H](S(C)(=O)=O)CC3)n(C)c2-c2ccsc2)ccc1F [Example 182, N-(4-fluoro-3-methylphenyl)-1,4-dimethyl-5-(2-(((1s,4s)-4-(methylsulfonyl)cyclohexyl)amino)-2-oxoacetyl)-2-(thiophen-3-yl)-1H-pyrrole-3-carboxamide]
- CC50 at 7 days [1]: > 30 µM
- EC50 (HBV): > 1 µM

SMILES: Cc1cc(NC(=O)c2c(C)c(C(=O)C(=O)N[C@@H]3CC[C@H](O)C[C@@H]3F)n(C)c2C)ccc1F [Example 122, N-(4-fluoro-3-methylphenyl)-5-(2-(((1R,2S,4S)-2-fluoro-4-hydroxycyclohexyl)amino)-2-oxoacetyl)-1,2,4-trimethyl-1H-pyrrole-3-carboxamide]
- CC50 at 7 days [1]: 5 to 30 µM
- EC50 (HBV): < 0.05 µM

SMILES: Cc1cc(NC(=O)c2c(C(C)C)c(C(=O)C(=O)N[C@H](C)C(F)(F)F)n(C)c2C)ccc1F [Example 96, (R)-N-(4-fluoro-3-methylphenyl)-4-isopropyl-1,2-dimethyl-5-(2-oxo-2-((1,1,1-trifluoropropan-2-yl)amino)acetyl)-1H-pyrrole-3-carboxamide]
- CC50 at 7 days [1]: > 30 µM
- EC50 (HBV): > 1 µM

SMILES: Cc1cc(NC(=O)c2c(C)c(C(=O)C(=O)N[C@H]3CCCC(F)(F)[C@@H]3O)n(C)c2C)ccc1F [Example 13, 5-(2-(((1S,2R)-3,3-difluoro-2-hydroxycyclohexyl)amino)-2-oxoacetyl)-N-(4-fluoro-3-methylphenyl)-1,2,4-trimethyl-1H-pyrrole-3-carboxamide]
- CC50 at 7 days [1]: > 30 µM
- EC50 (HBV): < 0.05 µM

SMILES: Cc1ccc(F)c(NC(=O)c2c(C)c(C(=O)C(=O)NC(C)(C)C)n(C)c2C)c1 [Example 68, 5-(2-(tert-butylamino)-2-oxoacetyl)-N-(2-fluoro-5-methylphenyl)-1,2,4-trimethyl-1H-pyrrole-3-carboxamide]
- CC50 at 7 days [1]: > 30 µM
- EC50 (HBV): < 0.05 µM
